As usually defined, the IC50 is the concentration that gives 50% inhibition. A high value points to a need for much substance. The Kd is the equilibrium constant for the complex coming apart. In general, ΔTm refers to the change in melting temperature against a reference sample.

Each structure is given as a SMILES string. The source made the active and inactive calls. The rule behind the calls is not given here.

Eleven compounds from ChEMBL document CHEMBL4017494, “Structural Basis of Wee Kinases Functionality and Inactivation by Diverse Small Molecule Inhibitors” (J Med Chem, 2017) can be followed below.

One series deals with HEK-293T. Put plainly: Antiproliferative activity against HEK293T cells measured after 72 hrs by CellTiter-Blue assay. In kind it is cell-based. Conditions: Homo sapiens. In general terms: Alamar Blue is a resazurin reagent that responds to reducing activity.
A further series deals with MDA-MB-231. Put plainly: Antiproliferative activity against human MDA-MB-231 cells measured after 72 hrs by CellTiter-Blue assay. In kind it is functional, cell-based. Conditions: MDA-MB-231, 72 h.
The test system of the next series is MM1.S. Put plainly: Antiproliferative activity against human MM1S cells measured after 72 hrs by CellTiter-Blue assay. The format is functional, cell-based.
The target in series [1] is T1, Wee1-like protein kinase 2 (Homo sapiens, UniProt P0C1S8). Put plainly: Binding affinity to recombinant human N-terminal His6-tagged Wee2 kinase domain (202 to 492 residues) expressed in Escherichia coli BL21 (DE3) by isothermal titration calorimetry. Background: In ITC the heat of successive injections is recorded.
Target sequence in this assay (P0C1S8 whole entry, the tested form may be a part): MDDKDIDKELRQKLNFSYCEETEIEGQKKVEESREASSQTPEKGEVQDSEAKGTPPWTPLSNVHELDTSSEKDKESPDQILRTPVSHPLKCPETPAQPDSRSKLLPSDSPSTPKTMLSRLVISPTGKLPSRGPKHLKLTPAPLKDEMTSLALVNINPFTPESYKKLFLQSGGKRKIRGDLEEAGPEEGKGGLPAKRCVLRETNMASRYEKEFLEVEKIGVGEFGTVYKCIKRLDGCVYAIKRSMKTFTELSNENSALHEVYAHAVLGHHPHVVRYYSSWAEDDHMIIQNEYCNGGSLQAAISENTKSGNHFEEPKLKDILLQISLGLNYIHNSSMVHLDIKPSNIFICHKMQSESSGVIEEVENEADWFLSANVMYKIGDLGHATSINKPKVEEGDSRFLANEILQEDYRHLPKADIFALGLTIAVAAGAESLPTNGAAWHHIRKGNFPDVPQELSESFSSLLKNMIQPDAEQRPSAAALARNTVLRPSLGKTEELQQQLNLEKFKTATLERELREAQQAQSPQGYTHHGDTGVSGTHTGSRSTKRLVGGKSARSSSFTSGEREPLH
Series [2] has as its target T2, Membrane-associated tyrosine- and threonine-specific cdc2-inhibitory kinase (Homo sapiens, UniProt Q99640).
T2 sequence (Q99640 whole entry): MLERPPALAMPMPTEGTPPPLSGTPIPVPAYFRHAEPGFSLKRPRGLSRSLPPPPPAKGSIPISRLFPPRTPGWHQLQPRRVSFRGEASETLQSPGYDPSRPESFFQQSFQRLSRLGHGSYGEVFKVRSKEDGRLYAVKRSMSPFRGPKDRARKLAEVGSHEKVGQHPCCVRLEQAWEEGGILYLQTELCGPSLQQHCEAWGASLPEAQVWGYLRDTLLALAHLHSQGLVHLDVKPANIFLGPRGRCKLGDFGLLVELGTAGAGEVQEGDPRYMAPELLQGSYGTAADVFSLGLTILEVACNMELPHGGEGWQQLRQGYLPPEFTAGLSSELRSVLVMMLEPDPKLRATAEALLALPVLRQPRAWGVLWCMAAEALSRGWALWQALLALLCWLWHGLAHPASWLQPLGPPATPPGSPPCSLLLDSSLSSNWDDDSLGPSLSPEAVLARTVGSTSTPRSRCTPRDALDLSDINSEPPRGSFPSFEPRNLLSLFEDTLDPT
Put plainly: Binding affinity to recombinant human N-terminal His6-tagged Myt1 kinase domain (75 to 361 residues) by isothermal titration calorimetry.

Series [3] addresses T3, Wee1-like protein kinase (Homo sapiens, UniProt P30291). Put plainly: Binding affinity to recombinant human N-terminal His6-tagged Wee1 kinase domain (291 to 575 residues) expressed in Escherichia coli BL21 (DE3) by isothermal titration calorimetry.
Target sequence in this assay (P30291 whole entry, the tested form may be a part): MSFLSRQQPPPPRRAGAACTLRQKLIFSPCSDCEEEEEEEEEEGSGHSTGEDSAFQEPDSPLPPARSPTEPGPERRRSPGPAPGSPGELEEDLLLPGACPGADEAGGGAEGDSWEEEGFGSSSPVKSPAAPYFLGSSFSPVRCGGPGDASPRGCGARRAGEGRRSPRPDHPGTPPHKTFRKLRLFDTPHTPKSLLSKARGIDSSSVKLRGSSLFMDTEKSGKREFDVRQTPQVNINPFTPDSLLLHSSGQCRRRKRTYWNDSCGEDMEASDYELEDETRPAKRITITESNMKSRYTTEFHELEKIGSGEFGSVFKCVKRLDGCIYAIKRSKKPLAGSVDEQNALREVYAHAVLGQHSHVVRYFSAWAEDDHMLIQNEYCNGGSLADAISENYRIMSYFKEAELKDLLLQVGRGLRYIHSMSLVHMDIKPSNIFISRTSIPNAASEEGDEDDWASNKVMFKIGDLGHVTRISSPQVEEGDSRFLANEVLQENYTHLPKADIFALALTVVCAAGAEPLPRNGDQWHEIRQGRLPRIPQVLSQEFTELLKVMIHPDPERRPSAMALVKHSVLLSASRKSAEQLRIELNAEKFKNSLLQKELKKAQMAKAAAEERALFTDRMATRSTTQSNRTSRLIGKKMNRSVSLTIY
For series [4], the target named is T3, Wee1-like protein kinase.
Target sequence in this assay (P30291 whole entry, looked up, the tested form may be a part): as the sequence (P30291 whole entry, the tested form may be a part) above
For series [5], the target named is T1, Wee1-like protein kinase 2.
Target sequence in this assay (P0C1S8 whole entry, looked up, the tested form may be a part): as the sequence (P0C1S8 whole entry, the tested form may be a part) above
Series [6] has as its target T4, Membrane-associated tyrosine- and threonine-specific cdc2-inhibitory kinase (Homo sapiens) (UniProt Q99640).
T4 sequence (whole entry): T2 sequence (Q99640 whole entry)

In series [7] the target is T1, Wee1-like protein kinase 2. Put plainly: Binding affinity to recombinant human full-length N-terminal His8-tagged Wee2 (1 to 567 residues) expressed in human Expi293F cells assessed as dessociation constant by quantitative real-time PCR method. In kind it is cell-based. In general terms: Quantitative PCR measures a nucleic acid by following its amplification.
Target sequence in this assay (P0C1S8 whole entry, the tested form may be a part): as above
A short description of series [8]: Binding affinity to human FLT3 D835V-mutant assessed as dissociation constant by quantitative real-time PCR method.
Series [9] deals with T3, Wee1-like protein kinase. Put plainly: Inhibition of Wee1 in HEK293T cells assessed as decrease in CDK1 phosphorylation at Tyr15 at 0.1 to 10 uM after 6 hrs by Western blot method. In kind it is cell-based.
Target sequence in this assay (P30291 whole entry, the tested form may be a part): as the sequence (P30291 whole entry, the tested form may be a part) above
For series [10], the target named is T5, Serine/threonine-protein kinase PLK1 (Homo sapiens, UniProt P53350).
T5 sequence (P53350 whole entry): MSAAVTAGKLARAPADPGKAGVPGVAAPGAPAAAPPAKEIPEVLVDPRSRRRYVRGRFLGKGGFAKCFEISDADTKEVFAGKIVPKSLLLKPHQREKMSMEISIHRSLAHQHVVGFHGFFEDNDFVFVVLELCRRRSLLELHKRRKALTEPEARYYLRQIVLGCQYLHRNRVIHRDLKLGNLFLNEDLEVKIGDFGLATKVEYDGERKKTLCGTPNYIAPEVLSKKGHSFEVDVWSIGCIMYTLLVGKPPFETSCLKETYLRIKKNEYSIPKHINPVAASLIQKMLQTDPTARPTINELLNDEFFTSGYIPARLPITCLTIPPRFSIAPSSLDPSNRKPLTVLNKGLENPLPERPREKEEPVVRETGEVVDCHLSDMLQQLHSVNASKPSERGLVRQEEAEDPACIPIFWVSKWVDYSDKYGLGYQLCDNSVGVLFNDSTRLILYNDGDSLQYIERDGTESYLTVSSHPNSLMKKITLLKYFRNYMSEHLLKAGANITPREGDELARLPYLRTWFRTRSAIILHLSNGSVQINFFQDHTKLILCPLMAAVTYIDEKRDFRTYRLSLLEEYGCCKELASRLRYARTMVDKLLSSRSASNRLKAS
In series [11] the target is T3, Wee1-like protein kinase. Conditions: at 0.1 to 10 µM.
Target sequence in this assay (P30291 whole entry, looked up, the tested form may be a part): as the sequence (P30291 whole entry, the tested form may be a part) above
For series [12], the target named is T5, Serine/threonine-protein kinase PLK1. The conditions noted are these: 0.1 to 10 uM.
In series [13] the target is T3, Wee1-like protein kinase. Put plainly: Inhibition of Wee1 in HEK293T cells assessed as decrease in CDK1 phosphorylation at Tyr15 at 0.01 to 10 uM after 6 hrs by Western blot method. In kind it is cell-based.
Target sequence in this assay (P30291 whole entry, the tested form may be a part): as above
In series [14] the target is T3, Wee1-like protein kinase. Conditions: 0.1 to 10 uM.
Target sequence in this assay (P30291 whole entry, looked up, the tested form may be a part): as the sequence (P30291 whole entry, the tested form may be a part) above

For `CCN(CC)CCOc1ccc(Nc2ncc3cc(-c4c(Cl)cccc4Cl)c(=O)n(C)c3n2)cc1` [PD-0166285], the IC50 in the series on HEK-293T stood at 290 nM; in the series on MDA-MB-231, 160 nM; in the series with MM1.S, 520 nM. Further, the Kd in [1] (read-out: Kd) is 5 nM; in series [2] (read-out: Kd) it was 247 nM.
On to `CC(=O)NCC(=O)N1[C@@H]2CC[C@H]1c1ccc(Nc3ncc(C(F)(F)F)c(NC4CCC4)n3)cc12` (single isomer, unassigned) [PF-03814735], for which the Kd on Wee1-like protein kinase [3] (read-out: Kd) is 78.7 nM; in series [1] (read-out: Kd) it was 128 nM; in [2], “Not Active”. Besides, the values for the ΔTm (at Wee1-like protein kinase [4]; in series [5]; in series [6]) were 7.9 °C, 8.5 °C and -0.1 °C, respectively.
In the case of `C=CCn1c(=O)c2cnc(Nc3ccc(N4CCN(C)CC4)cc3)nc2n1-c1cccc(C(C)(C)O)n1` [ADAVOSERTIB], the Kd in series [7] was determined as 3.9 nM; in series [8] it was 7.5 nM; in series [1] (read-out: Kd), 27 nM; in [10], 3 nM. For the same compound, the concentration for half-maximal inhibition (IC50) in the series on HEK-293T amounted to 290 nM; in the series on MDA-MB-231, 260 nM; with MM1.S, 310 nM. For the same compound, the “inhibition (INH)” value at Wee1-like protein kinase [9] was “Active”. Besides, the inhibition entry (on Wee1-like protein kinase [11]; in series [12]) was “Active” each time. In addition, the ΔTm is 15.4 °C on Wee1-like protein kinase [4], 11.6 °C in series [5] and 3.3 °C in series [6].
In the case of `CN1CCN(CCOc2cc(OC3CCOCC3)c3c(Nc4c(Cl)ccc5c4OCO5)ncnc3c2)CC1` [SARACATINIB], the Kd result (on Wee1-like protein kinase [3]; in series [1]) was “Not Active” in each case. The figures for the ΔTm (at Wee1-like protein kinase [4]; in [5]; in [6]) were 1.2 °C, 0.65 °C and 2.1 °C, respectively.
`Cc1nc(Nc2ncc(C(=O)Nc3c(C)cccc3Cl)s2)cc(N2CCN(CCO)CC2)n1`: the ΔTm in series [5] is 9.2 °C.
`COc1cc(Nc2c(C#N)cnc3cc(OCCCN4CCN(C)CC4)c(OC)cc23)c(Cl)cc1Cl`: the ΔTm in [6] was 3.9 °C.
As for `CCOc1cc2ncc(C#N)c(Nc3ccc(F)c(Cl)c3)c2cc1NC(=O)/C=C/CN(C)C` [PELITINIB], the Kd in [1] (read-out: Kd) amounted to 498 nM; in series [2] (read-out: Kd) it was 1100 nM. For the same compound, the ΔTm in series [5] was found to be 5.6 °C; in [6] it was 2.4 °C.
As to `C[C@@H](Oc1cc(-n2cnc3ccc(CN4CCN(C)CC4)cc32)sc1C(N)=O)c1ccccc1C(F)(F)F` [GSK-461364], the IC50 in the series with HEK-293T, with MDA-MB-231 and in the series on MM1.S was 1 to 3.5 nM each time. Moreover, the “inhibition (INH)” value at Wee1-like protein kinase [13] is “Not Active”. Further, the inhibition result at Wee1-like protein kinase [11] is “inactive”.
For the compound `COc1cc2c(Nc3cc(Cl)c(OC)c(Cl)c3)c(C#N)cnc2cc1OCCCN1CCN(C)CC1`, the half-maximal inhibitory concentration (IC50) turned out to be 1600 nM in the series on HEK-293T, 1800 nM with MDA-MB-231 and 3900 nM in the series with MM1.S. For the same compound, the Kd was determined as 4.7 nM in series [1] (read-out: Kd) and 444 nM in series [2] (read-out: Kd). In addition, the thermal shift (ΔTm) on Wee1-like protein kinase [4] was 10 °C; in [5], 12.3 °C; in [6] it was 3 °C.
`CNC(=O)c1nn(C)c2c1C(C)(C)Cc1cnc(Nc3ccc(N4CCN(C)CC4)cc3)nc1-2` [MILCICLIB]: the equilibrium dissociation constant (Kd) at Wee1-like protein kinase [3] (read-out: Kd) stood at 13.6 nM; in [1] (read-out: Kd), 26.6 nM; in [2] (read-out: Kd) it was 990 nM. The inhibition entry at Wee1-like protein kinase [11] and at Wee1-like protein kinase [14] was “Dose-dependent effect” each time. The thermal shift (ΔTm) at Wee1-like protein kinase [4] turned out to be 13.4 °C; in series [5], 11.5 °C; in [6] it was 3.6 °C.
Turning to `CC[C@@H]1C(=O)N(C)c2cnc(Nc3ccc(C(=O)NC4CCN(C)CC4)cc3OC)nc2N1C1CCCC1` [BI-2536], on Wee1-like protein kinase [9], the “inhibition (INH)” value is on record as “Not Active”.
